Laboratory results as given in ChEMBL document CHEMBL1201862, “PubChem BioAssay data set” (2004).
Activity calls are given as the source filed them.

Experiments:
[1] = molecular target: T1, Replicative DNA helicase DnaB (Mycobacterium tuberculosis, UniProt P9WMR3); test: DnaB intein splicing inhibitors, dose response, biochemical, cell-free fluorescence (AID 449749); type: functional
T1 sequence (P9WMR3 whole entry): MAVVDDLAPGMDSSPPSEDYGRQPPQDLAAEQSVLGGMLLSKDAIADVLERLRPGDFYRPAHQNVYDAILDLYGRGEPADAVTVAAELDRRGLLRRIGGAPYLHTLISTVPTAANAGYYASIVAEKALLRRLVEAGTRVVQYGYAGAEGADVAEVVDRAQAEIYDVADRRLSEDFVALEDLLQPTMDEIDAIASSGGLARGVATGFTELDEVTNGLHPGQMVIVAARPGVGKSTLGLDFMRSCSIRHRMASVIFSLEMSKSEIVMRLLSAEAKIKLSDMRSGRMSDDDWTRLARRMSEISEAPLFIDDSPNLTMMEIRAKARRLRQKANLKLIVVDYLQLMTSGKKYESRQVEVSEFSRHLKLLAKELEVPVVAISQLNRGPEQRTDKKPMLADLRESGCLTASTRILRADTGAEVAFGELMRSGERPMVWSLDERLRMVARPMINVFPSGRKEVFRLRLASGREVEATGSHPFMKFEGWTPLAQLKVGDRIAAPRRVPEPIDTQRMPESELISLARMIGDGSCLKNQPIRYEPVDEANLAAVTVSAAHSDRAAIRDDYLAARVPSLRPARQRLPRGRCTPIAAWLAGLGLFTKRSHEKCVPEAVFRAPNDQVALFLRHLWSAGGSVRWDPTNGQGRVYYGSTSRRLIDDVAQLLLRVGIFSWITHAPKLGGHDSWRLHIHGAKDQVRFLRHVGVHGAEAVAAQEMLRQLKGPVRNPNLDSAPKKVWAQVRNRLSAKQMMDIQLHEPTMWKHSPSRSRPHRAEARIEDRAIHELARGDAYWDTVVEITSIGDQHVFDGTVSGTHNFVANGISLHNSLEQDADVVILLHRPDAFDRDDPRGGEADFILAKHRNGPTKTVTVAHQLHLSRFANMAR

[2] = molecular target: T2, Protein RecA (Mycobacterium tuberculosis, UniProt P9WHJ3); test: Fluorescence Cell-Free Homogeneous Dose Retest to Identify Inhibitors of RecA-Intein Splicing Activity. [Related pubchem assays (depositor defined):AID2097, AID2223, AID489010, AID492950]; type: functional
T2 sequence (P9WHJ3 whole entry): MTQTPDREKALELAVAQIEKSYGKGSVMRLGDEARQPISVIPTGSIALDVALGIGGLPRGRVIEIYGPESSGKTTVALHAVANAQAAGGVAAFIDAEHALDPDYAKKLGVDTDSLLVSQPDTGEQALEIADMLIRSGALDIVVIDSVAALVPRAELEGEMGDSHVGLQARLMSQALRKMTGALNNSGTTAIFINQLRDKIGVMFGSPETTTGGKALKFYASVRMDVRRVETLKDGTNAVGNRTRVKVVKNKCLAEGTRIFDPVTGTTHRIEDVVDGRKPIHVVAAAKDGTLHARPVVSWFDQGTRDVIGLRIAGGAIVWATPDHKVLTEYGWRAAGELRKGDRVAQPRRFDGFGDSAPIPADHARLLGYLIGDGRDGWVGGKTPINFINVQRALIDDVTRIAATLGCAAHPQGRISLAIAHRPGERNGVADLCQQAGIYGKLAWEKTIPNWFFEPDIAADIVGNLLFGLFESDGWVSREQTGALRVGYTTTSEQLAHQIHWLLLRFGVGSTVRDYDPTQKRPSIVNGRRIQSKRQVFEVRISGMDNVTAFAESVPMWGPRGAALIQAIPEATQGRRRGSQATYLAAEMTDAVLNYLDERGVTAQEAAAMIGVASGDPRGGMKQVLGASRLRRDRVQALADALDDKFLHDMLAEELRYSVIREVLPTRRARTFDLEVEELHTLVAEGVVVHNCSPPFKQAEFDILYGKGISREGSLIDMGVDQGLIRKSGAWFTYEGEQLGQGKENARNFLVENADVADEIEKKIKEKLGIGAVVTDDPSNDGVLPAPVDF

[3] = molecular target: Genome polyprotein (dengue virus type 2, UniProt P29990); test: flavivirus cap methylation enzyme inhibition – biochemical, confirmation dose response, primary screen (AID 588689); type: functional
Genome polyprotein, sequence (P29990 2492-3391 limits assumed): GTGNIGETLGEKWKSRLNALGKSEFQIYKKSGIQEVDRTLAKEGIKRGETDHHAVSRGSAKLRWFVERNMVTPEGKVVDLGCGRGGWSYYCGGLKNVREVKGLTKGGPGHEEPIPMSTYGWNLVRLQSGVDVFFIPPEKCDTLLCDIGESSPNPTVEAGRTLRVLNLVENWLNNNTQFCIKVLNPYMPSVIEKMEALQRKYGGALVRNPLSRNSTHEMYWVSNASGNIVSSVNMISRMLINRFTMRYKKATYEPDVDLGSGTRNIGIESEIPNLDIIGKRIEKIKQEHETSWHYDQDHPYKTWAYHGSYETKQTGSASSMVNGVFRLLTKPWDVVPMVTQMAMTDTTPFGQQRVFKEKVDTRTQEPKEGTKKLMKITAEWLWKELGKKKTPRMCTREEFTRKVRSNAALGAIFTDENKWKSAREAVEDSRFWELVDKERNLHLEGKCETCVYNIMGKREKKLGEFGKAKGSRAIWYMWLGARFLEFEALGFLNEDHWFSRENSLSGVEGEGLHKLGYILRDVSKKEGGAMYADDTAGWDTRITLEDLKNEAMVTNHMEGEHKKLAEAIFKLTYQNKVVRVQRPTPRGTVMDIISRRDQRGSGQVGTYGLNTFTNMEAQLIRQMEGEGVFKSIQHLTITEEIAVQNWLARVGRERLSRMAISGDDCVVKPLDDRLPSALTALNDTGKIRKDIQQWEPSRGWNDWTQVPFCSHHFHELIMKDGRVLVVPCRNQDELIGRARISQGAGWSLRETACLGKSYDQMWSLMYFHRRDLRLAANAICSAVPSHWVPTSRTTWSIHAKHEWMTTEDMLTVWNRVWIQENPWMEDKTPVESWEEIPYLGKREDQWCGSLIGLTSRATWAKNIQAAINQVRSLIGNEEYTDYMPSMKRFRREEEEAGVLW

[4] = molecular target: Glyceraldehyde-3-phosphate dehydrogenase (Homo sapiens, UniProt P04406)
Glyceraldehyde-3-phosphate dehydrogenase, sequence (P04406 whole entry): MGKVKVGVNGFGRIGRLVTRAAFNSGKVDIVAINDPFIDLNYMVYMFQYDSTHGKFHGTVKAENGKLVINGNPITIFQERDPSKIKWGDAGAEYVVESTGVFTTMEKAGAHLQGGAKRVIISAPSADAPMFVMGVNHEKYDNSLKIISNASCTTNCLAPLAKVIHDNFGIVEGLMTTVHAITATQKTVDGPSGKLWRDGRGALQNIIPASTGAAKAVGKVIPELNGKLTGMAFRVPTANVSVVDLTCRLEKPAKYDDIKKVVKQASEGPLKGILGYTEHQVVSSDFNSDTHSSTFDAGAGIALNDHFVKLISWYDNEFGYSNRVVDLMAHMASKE

[5] = Trypanosoma cruzi growth suppression in host cells – NIH3T3 host cells, beta-gal luminescence, confirmation (AID 2044); type: functional, cell-based;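 note: intracellular parasites grown in NIH/3T3 mouse fibroblasts as host cells; luminescent beta-galactosidase reporter signal from transgenic T. cruzi replicating inside host cells; inhibitors lower the luminescence signal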
[6] = NIH3T3 cell viability loss – ATP luminescence, mouse fibroblasts, counter-screen, dose response (AID 2010); type: functional, cell-based;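 note: cells exposed to compound for about 90 hours before reading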
[7] = molecular target: DNA dC->dU-editing enzyme APOBEC-3G (Homo sapiens, UniProt Q9HC16); test: Dose Response confirmation of small molecule APOBEC3G DNA Deaminase Inhibitors via a fluorescence-based single-stranded DNA deaminase assay. [Related pubchem assays (depositor defined):AID493012, AID493028]; type: functional
DNA dC->dU-editing enzyme APOBEC-3G, sequence (Q9HC16 whole entry): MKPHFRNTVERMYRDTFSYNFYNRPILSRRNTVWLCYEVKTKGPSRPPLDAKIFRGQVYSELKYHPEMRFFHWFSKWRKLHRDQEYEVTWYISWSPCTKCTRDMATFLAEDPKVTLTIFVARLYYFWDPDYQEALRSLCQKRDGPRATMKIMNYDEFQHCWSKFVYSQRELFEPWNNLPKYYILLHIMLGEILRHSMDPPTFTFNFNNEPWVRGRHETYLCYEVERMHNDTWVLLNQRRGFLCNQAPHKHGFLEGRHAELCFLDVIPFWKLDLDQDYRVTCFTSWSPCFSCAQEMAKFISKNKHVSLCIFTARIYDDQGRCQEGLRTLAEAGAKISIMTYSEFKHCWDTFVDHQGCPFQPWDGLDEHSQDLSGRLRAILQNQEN

[8] = molecular target: T3, Fatty acid synthase (Homo sapiens, UniProt P49327); test: inhibition of human FAS-TE enzyme activity – biochemical, endpoint fluorescence intensity, uHTS hits, dose response (AID 624327); type: functional;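 note: fluorescence from hydrolysis of an O-methyl fluorescein acyl ester substrate by the enzyme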
T3 sequence (P49327 whole entry): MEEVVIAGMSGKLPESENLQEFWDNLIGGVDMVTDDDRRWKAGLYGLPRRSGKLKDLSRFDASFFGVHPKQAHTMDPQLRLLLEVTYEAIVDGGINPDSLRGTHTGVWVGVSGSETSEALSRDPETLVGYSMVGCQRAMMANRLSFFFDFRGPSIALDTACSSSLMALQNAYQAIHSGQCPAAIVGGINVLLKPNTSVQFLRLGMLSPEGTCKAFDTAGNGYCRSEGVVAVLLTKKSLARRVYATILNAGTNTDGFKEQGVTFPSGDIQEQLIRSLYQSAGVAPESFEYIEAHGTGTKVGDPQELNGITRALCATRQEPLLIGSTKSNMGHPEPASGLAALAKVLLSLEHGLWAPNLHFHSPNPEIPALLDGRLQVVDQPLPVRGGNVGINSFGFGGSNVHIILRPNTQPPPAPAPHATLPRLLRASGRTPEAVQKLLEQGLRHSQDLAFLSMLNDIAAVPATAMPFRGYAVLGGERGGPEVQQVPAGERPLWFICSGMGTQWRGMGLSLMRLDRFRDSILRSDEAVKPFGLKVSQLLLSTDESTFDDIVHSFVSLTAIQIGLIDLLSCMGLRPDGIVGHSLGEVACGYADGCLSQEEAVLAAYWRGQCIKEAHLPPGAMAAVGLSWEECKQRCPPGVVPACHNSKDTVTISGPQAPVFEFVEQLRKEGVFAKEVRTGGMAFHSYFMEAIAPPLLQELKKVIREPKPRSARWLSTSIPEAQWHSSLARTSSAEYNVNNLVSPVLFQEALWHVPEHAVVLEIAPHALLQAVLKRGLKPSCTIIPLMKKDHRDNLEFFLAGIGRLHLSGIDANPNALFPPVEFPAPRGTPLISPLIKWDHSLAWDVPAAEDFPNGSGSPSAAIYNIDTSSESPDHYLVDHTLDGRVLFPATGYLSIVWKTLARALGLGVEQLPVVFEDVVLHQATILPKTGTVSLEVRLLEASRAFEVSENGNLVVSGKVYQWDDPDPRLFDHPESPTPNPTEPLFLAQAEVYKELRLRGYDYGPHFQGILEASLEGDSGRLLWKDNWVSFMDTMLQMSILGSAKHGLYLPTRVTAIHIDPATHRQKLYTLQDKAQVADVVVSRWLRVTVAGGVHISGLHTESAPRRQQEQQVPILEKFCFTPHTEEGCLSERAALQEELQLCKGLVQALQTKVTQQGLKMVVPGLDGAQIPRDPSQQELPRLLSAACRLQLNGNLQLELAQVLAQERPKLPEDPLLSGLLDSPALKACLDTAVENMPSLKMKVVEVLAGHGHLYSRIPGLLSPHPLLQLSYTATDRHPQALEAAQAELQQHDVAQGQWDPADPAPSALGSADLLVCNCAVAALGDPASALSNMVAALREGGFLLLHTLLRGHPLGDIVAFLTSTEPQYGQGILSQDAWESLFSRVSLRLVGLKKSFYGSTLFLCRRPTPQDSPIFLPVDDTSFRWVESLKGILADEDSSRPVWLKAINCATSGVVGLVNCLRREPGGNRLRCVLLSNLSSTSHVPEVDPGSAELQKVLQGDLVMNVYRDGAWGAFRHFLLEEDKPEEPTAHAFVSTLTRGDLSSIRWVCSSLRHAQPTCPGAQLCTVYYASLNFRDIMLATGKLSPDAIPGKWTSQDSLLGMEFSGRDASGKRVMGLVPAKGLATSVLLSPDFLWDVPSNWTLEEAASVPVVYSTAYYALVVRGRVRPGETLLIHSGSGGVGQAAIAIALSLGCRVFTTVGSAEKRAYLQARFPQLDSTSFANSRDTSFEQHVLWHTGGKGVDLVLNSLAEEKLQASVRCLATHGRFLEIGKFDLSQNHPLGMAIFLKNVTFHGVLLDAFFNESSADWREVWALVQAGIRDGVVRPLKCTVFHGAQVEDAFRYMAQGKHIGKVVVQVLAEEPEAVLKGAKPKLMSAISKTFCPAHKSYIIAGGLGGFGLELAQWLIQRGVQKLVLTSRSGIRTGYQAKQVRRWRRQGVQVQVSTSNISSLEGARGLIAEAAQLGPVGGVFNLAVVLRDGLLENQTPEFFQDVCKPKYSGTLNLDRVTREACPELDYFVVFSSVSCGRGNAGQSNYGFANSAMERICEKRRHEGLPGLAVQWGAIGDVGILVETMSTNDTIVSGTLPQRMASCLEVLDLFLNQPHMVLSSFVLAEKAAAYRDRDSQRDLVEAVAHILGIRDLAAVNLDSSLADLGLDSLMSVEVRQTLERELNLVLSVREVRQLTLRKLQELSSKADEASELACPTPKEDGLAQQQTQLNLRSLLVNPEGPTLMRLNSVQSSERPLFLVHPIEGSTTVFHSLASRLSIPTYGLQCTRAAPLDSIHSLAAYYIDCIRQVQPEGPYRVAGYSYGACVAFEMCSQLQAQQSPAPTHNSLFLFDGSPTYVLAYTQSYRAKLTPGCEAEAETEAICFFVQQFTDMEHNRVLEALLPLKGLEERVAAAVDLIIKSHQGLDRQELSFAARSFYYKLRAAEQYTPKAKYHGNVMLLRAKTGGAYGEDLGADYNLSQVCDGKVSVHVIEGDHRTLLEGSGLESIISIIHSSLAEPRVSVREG

[9] = molecular target: T3, Fatty acid synthase; test: inhibition of human FAS-TE enzyme activity – biochemical, kinetic fluorescence intensity, dose response (AID 624326); type: functional;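 note: rate of fluorescence rise from hydrolysis of a fluorogenic O-methyl fluorescein ester substrate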
[10] = viability loss in HeLa cells – cytotoxicity control for MgcRacGAP inhibitor project, dose response (AID 624300); type: functional
[11] = molecular target: T4, Rac GTPase-activating protein 1 (Homo sapiens, UniProt Q9H0H5); test: blockers of MgcRacGAP-driven Rac1 GTP hydrolysis – biochemical, ADP Hunter fluorescence, primary and confirmatory, confirmation (AID 624330); type: functional
T4 sequence (Q9H0H5 whole entry): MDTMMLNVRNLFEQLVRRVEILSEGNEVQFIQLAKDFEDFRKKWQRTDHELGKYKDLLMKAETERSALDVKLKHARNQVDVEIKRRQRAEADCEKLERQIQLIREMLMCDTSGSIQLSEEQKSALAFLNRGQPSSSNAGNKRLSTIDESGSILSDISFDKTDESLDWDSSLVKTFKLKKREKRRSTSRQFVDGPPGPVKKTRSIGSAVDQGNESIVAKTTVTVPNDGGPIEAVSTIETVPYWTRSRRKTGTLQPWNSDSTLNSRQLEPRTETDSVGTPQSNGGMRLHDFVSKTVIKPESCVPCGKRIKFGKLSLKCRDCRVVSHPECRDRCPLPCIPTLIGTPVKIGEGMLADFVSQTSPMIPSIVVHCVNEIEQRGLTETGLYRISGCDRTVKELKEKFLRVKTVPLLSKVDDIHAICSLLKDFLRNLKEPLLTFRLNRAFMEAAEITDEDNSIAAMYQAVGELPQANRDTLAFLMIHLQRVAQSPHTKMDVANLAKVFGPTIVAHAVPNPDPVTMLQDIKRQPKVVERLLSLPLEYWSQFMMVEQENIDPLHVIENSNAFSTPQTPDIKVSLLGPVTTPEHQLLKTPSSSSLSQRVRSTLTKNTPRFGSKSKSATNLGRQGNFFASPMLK

[12] = system: Vero; test: cells; type: functional, cell-based; conditions: Chlorocebus sabaeus
[13] = system: Vero; test: cells; type: functional; conditions: Chlorocebus sabaeus
[14] = intracellular Trypanosoma cruzi inhibitors in host cells – cell-based, plate reader, cherry-pick samples, set 3, dose response (AID 651818); type: functional;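 note: compounds incubated with infected cells for about four days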
[15] = growth inhibition of yeast DHODH-expressing 3D7 parasites – SYBR Green, dry powder samples, dose response (AID 1159570); type: functional, cell-based;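 note: parasite growth measured after 72 hours of compound exposure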
[16] = P. falciparum Dd2 growth inhibitors, dose response, SYBR Green, cherry-picked samples (AID 1159567); type: functional, cell-based
[17] = Dd2 malaria parasite growth inhibition potency – SYBR Green, dry powder samples, dose response (AID 1159566); type: functional, cell-based;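 note: potency for growth inhibition with lower SYBR green DNA signal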
[18] = growth inhibition of PfATP4-mutant resistant parasites – NITD609-resistant line, SYBR Green, dry powder, dose response (AID 1159571); type: functional, cell-based;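 note: parasites synchronized at ring stage by sorbitol before testing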

Question: What does the source list for O=C(O)CN1C(=O)/C(=C\c2cccc(OCc3ccc(Cl)cc3Cl)c2)SC1=S?
Answer: AC50 [1]: 2.73 µM (active); EC50 [2]: 11.1 µM (active); IC50 [3]: 36 µM (active)

Question: Which IC50 [4] does the source give for O=C1C(Cl)=C(N2CCN(Cc3ccccc3)CC2)C(=O)N1c1ccc(Cl)nc1 here?
Answer: > 50 µM (inconclusive)

Question: With COc1ccc(-n2c(SCC(=O)C(C)(C)C)nc3c(sc(=S)n3-c3ccccc3)c2=O)c(OC)c1 as the molecule, how does the EC50 [5] read?
Answer: 0.714 µM (active)

Question: What about the EC50 [6] of the same molecule?
Answer: > 60 µM (not active)

Question: What about the IC50 [7] of the same molecule?
Answer: 66.5 µM (active)

Question: With Cc1ccc(C(=O)O/N=C(\N)Cc2cccs2)cc1[N+](=O)[O-] as the molecule, how does the IC50 [8] read?
Answer: 9.57 µM (active)

Question: What about the IC50 [9] of the same molecule?
Answer: 8.33 µM (active)

Question: Which IC50 [8] does the source give for CN(C)C=O.O=C(O)c1ccccc1NS(=O)(=O)c1ccc(NN=Cc2ccc(F)cc2)c([N+](=O)[O-])c1 here?
Answer: 7.9 µM (active)

Question: What about the IC50 [9] of the same molecule?
Answer: 4.43 µM (active)

Question: Which results are given for O=C(COC(=O)c1cc([N+](=O)[O-])ccc1Cl)NCCc1ccccc1?
Answer: IC50 [8]: 3.93 µM (active); IC50 [9]: 5.26 µM (active)

Question: What does the source list for c1ccc2c(c1)Nc1ccncc1S2?
Answer: CC50 [10]: 100 µM (active); IC50 [11]: 269 µM (active)

Question: Which CC50 [10] does the source give for CC1CCCN(CCOc2ccc3ccccc3c2Br)C1 (stereo unspecified) here?
Answer: 68.9 µM (active)

Question: What about the IC50 [11] of the same molecule?
Answer: 142 µM (active)

Question: Which IC50 [4] does the source give for Cc1oc2c(c1C(=O)Nc1cccc(C(=O)O)c1)CCCC2 here?
Answer: > 100 µM (not active)

Question: Which IC50 [8] does the source give for O=C(CSc1ncnc2c1cnn2-c1ccccc1)NC1CCCC1 here?
Answer: 5.94 µM (active)

Question: What about the IC50 [9] of the same molecule?
Answer: 5.67 µM (active)

Question: For CCc1c(C(=O)NC2CCCc3ccccc32)[nH]c(C)c1C(C)=O (stereo unspecified), which IC50 [12] is on record?
Answer: 9.95 µM (active)

Question: And the CC50 [13]?
Answer: > 25 µM (active)

Question: For O=C(CN(CC(=O)N1CCOCC1)S(=O)(=O)c1ccc(Br)s1)N1CCOCC1, which IC50 [7] is on record?
Answer: 74.3 µM (active)

Question: For C[C@@H]1CN([C@H](C)CO)C(=O)Cc2cc(NC(=O)NC3CCCCC3)ccc2O[C@H]1CN(C)Cc1ccc(Oc2ccccc2)cc1, which AC50 [14] is on record?
Answer: 3.58 µM (active)

Question: Which AC50 [14] does the source give for C[C@H]1CN([C@@H](C)CO)C(=O)c2cc(NS(=O)(=O)c3ccc(F)cc3)ccc2O[C@@H]1CN(C)Cc1ccc(Cl)c(Cl)c1 here?
Answer: 4.6 µM (active)

Question: For COc1ccc(S(=O)(=O)Nc2cccc3c2O[C@@H](CN(C)Cc2ccc(C(=O)Nc4ccccc4N)cc2)[C@H](C)CN([C@@H](C)CO)C3=O)cc1, which AC50 [14] is on record?
Answer: 3.61 µM (active)

Question: For C[C@@H]1CCCCO[C@H](CN(C)C(=O)C2CCCCC2)[C@@H](C)CN([C@H](C)CO)C(=O)c2cc(NC(=O)Nc3ccc(C(F)(F)F)cc3)ccc2O1, which AC50 [14] is on record?
Answer: 6.88 µM (active)

Question: With C[C@H](CO)N1C[C@H](C)[C@@H](CN(C)Cc2ccncc2)Oc2c(NC(=O)Nc3ccc(C(F)(F)F)cc3)cccc2C1=O as the molecule, how does the AC50 [14] read?
Answer: 2.97 µM (active)

Question: For C[C@H]1CN([C@@H](C)CO)C(=O)c2c(c3ccccc3n2C)-c2ccccc2CO[C@@H]1CN(C)C(=O)Nc1ccc(-c2ccccc2)cc1, which AC50 [15] is on record?
Answer: 0.787 µM (active)

Question: What about the AC50 [16] of the same molecule?
Answer: 1.38 µM (active)

Question: And the AC50 [17]?
Answer: 0.507 µM (active)

Question: And the AC50 [18]?
Answer: 0.532 µM (active)

Question: For C[C@H](CO)N1C[C@H](C)[C@H](CN(C)CC2CC2)Oc2ccc(NC(=O)Nc3ccccc3)cc2CC1=O, which AC50 [15] is on record?
Answer: 3.81 µM (active)

Question: What about the AC50 [16] of the same molecule?
Answer: 2.08 µM (active)

Question: What about the AC50 [17] of the same molecule?
Answer: 3.39 µM (active)

Question: And the AC50 [18]?
Answer: 4.64 µM (active)

Question: Which AC50 [15] does the source give for C[C@@H]1CN([C@@H](C)CO)C(=O)c2cccc(NC(=O)c3nc4ccccc4s3)c2O[C@H]1CN(C)C(=O)NC1CCCCC1 here?
Answer: 0.846 µM (active)

Question: What about the AC50 [16] of the same molecule?
Answer: 1.37 µM (active)

Question: What about the AC50 [17] of the same molecule?
Answer: 1.08 µM (active)

Question: And the AC50 [18]?
Answer: 1.05 µM (active)

Question: For Cc1ccc2oc(=O)c3cnn(CC(=O)Nc4ccccc4N4CCN(C)CC4)c3c2c1, which IC50 [12] is on record?
Answer: 9.16 µM (active)
